Experimental data: US20260206761A1, “HETEROARYL-TRIAZOLE COMPOUNDS AS PESTICIDES” (Bayer Aktiengesellschaft, priority 2019, published 2026)

What was measured:
Assay type in all cases: in vivo
[1] = tested on: green peach aphid (Myzus persicae); assay: Myzus persicae spray test; details: 120 h, after 5 days; for mortality at 100 g/ha: application rate 100 g/ha; for mortality at 500 g/ha: application rate 500 g/ha
Summary of the method: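 Chinese cabbage leaf disks carrying all instars of M. persicae sprayed with compound in acetone/DMF, diluted in water with 1000 ppm alkylarylpolyglycol ether emulsifier. Percent mortality scored after 5 days (100% = all aphids killed).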

[2] = tested on: larvae of the banded cucumber beetle (Diabrotica balteata); assay: Diabrotica balteata spray test; details: 168 h, after 7 days, read-out: activity (efficacy: seedlings grown); for pest or weed control at 500 g/ha: application rate 500 g/ha (=160 pg/well); for pest or weed control at 100 g/ha: application rate 100 g/ha (=32 pg/well)
Summary of the method: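 Wheat seedlings, germinated 1 day on agar (5 seeds/well), sprayed with active compound in acetone/DMF diluted in water containing 1000 ppm emulsifier, then infested with 10-20 D. balteata larvae. Efficacy (%) scored after 7 days: 100% = seedlings grown as untreated uninfested control, 0% = no seedlings grown.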

[3] = tested on: adult unfed cat fleas (Ctenocephalides felis); assay: Ctenocephalides felis oral test; details: 48 h, read-out: activity (mortality)
Summary of the method: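 About 20 adult unfed fleas fed through parafilm on cattle blood containing compound (DMSO stock diluted in blood), blood held at 37 °C and fleas at room temperature. Mortality (%) scored after 2 days.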

[4] = tested on: adult engorged female ticks (Rhipicephalus microplus); assay: Rhipicephalus (Boophilus) microplus injection test; details: 168 h, egg deposition after 7 days, read-out: activity (efficacy: infertile eggs); for pest or weed control at 0.02 mg: application rate 20 μg/animal; for pest or weed control at 4 pg: application rate 4 pg/animal
Summary of the method: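 Five adult engorged female ticks injected into the abdomen with 1 μL compound solution in DMSO, then held in a climate chamber. Fertile egg deposition assessed after 7 days, unclear eggs kept until hatching (about 42 days); efficacy 100% = all eggs infertile, 0% = all fertile.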

[5] = tested on: Aedes aegypti strain MONHEIM; assay: Aedes aegypti test (AEDSAE surface treatment & contact assay); details: 24 hours after contact, read-out: efficacy (mortality); for mortality at 20 mg/m2: surface concentration 20 mg/m^2, exposure 30 minutes; for mortality at 4 mg/m2: surface concentration 4 mg/m^2, exposure 30 minutes
Summary of the method: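 Compound in acetone (2 mg/ml) with 2000 ppm RME pipetted onto glazed tile and dried; adult Aedes aegypti MONHEIM exposed 30 min. Percent mortality scored 24 h after contact.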

[6] = tested on: brown planthopper (Nilaparvata lugens); assay: Nilaparvata lugens spray test; details: 96 h, after 4 days; for mortality at 500 g/ha: application rate 500 g/ha; for mortality at 100 g/ha: application rate 100 g/ha
Procedure: Nilaparvata lugens—Spray Test
Solvent: 78.0 parts by weight of acetone • • 1.5 parts by weight of dimethylformamide
Emulsifier: alkylarylpolyglycol ether
To produce a suitable preparation of active compound, 1 part by weight of active compound is mixed with the stated amount of solvents and is diluted with water, containing an emulsifier concentration of 1000 ppm, to the desired concentration. Further test concentrations are prepared by dilution with emulsifier containing water.
Rice plants (Oryza sativa) are sprayed with a preparation of the active ingredient of the desired concentration and the plants are infested with the brown planthopper (Nilaparvata lugens).
After 4 days mortality in % is determined. 100% means all planthoppers have been killed and 0% means none of the planthoppers have been killed.

[7] = tested on: adult cat fleas (Ctenocephalides felis); assay: Ctenocephalides felis in-vitro contact test, adult cat flea; details: application rate 5 μg/cm^2 (=500 g/ha), after 48 hours, read-out: activity (efficacy: fleas dead or moribund)
Summary of the method: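 Acetone solutions of compound coated onto inner walls of glass tubes (900 ppm giving […]); after drying, 5-10 adult Ctenocephalides felis added and held at room temperature. At 48 h, fleas placed on a 45-50° C heating plate; those unable to climb away scored dead or moribund, expressed as % efficacy.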

[8] = tested on: Rhipicephalus microplus larvae (strain Parkhurst, resistant against synthetic pyrethroids); assay: Rhipicephalus (Boophilus) microplus in-vitro contact test, larval cattle tick; details: after 48 hours, read-out: activity (efficacy: larvae dead or moribund); for pest or weed control at 100 g/ha: application rate 1 pg/cm^2 (=100 g/ha); for pest or weed control at 500 g/ha: application rate 5 pg/cm^2 (=500 g/ha)
Summary of the method: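 Acetone solutions coated onto inner walls of glass tubes by rotation (900 ppm giving 5 μg/cm^2); after evaporation, 20-50 larvae added per tube and held at 27° C., 85% relative humidity. Efficacy read after 48 h from negative geotactic behaviour; 100% = all larvae dead or moribund.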

[9] = tested on: fall armyworm larvae (Spodoptera frugiperda); assay: Spodoptera frugiperda spray test; details: 168 h, read-out: activity (mortality)
Summary of the method: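 Compound in acetone/DMF, diluted in water with 1000 ppm alkylarylpolyglycol ether emulsifier, sprayed on maize leaf sections. Dried leaves infested with fall armyworm larvae; % mortality after 7 days (100% = all killed, 0% = none).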

[10] = tested on: larvae of the southern green stink bug (Nezara viridula); assay: Nezara viridula spray test; details: 96 h, after 4 days; for mortality at 500 g/ha: application rate 500 g/ha; for mortality at 100 g/ha: application rate 100 g/ha
Summary of the method: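 Compound in acetone/dimethylformamide, diluted in water with 1000 ppm alkylarylpolyglycol ether emulsifier, sprayed onto barley plants carrying stink bug larvae. Mortality (%) scored after 4 days, 100% meaning all insects killed.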

[11] = tested on: green peach aphid (Myzus persicae); assay: Myzus persicae oral test; details: 120 h, application rate 4 ppm, after 5 days
Summary of the method: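 Compound was dissolved at 1 part by weight in 100 parts acetone, then diluted with water to test concentration and combined with IPL41 insect medium (33%+15% sugar). A mixed aphid population fed on this through a parafilm seal, and mortality (%) was scored after 5 days.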

[12] = tested on: southern root-knot nematode (Meloidogyne incognita); assay: Meloidogyne incognita test; details: 336 h, application rate 20 ppm, after 14 days, read-out: nematicidal activity (based on gall formation)
Procedure: Meloidoyne incognita—Test
Solvent: 125.0 parts by weight of acetone
To produce a suitable preparation of active compound, 1 part by weight of active compound is mixed with the stated amount of solvent, and the concentrate is diluted with water to the desired concentration.
Vessels are filled with sand, a solution of the active ingredient, a suspension containing eggs and larvae of the southern root-knot nematode (Meloidogyne incognita) and salad seeds. The salad seeds germinate and the seedlings grow. Galls develop in the roots.
After 14 days the nematicidal activity is determined based on the percentage of gall formation. 100% means no galls were found and 0% means the number of galls found on the roots of the treated plants was equal to that in untreated control plants.

[13] = tested on: Musca domestica strain WHO-N; assay: Musca domestica test (MUSCDO surface treatment & contact assay); details: 24 hours after contact, read-out: efficacy (mortality); for mortality at 4 mg/m2: surface concentration 4 mg/m^2, exposure 30 minutes; for mortality at 20 mg/m2: surface concentration 20 mg/m^2, exposure 30 minutes
Procedure: Musca domestica Test (MUSCDO Surface Treatment & Contact Assay)
(§1) Solvent: Aceton+2000 ppm rapeseed oil methyl ester (RME)
(§2) In order to produce a sufficient, active ingredient containing solution it is necessary to solve the test compound in the solvent-mix (acetone at 2 mg/ml/RME 2000 ppm). This solution is pipetted onto a glazed tile and after evaporation of the acetone, adult flies of the species Musca domestica strain WHO—N are placed onto the dried surface. The exposure time is 30 minutes. Mortality in percent (%) is determined 24 hours after contact of the insects to the treated surface. 100% mortality means that all tested insects are dead, whereas 0% means that no insect died.

[14] = tested on: adult brown dog ticks (Rhipicephalus sanguineus); assay: Rhipicephalus sanguineus in-vitro contact test, adult brown dog ticks; details: after 48 hours, read-out: activity (efficacy: ticks dead or moribund); for pest or weed control at 5 µg/cm2, 500 g/ha: application rate 5 μg/cm^2 (=500 g/ha)
Summary of the method: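 Acetone solution rolled onto tube walls, 2 h at 30 rpm; 900 ppm → 5 μg/cm^2. Solvent evaporated, 5-10 adults/tube, perforated lid, lying, RT. 48 h: heat plate 45-50° C ≤5 min; immotile/uncoordinated = dead/moribund. 100% = all dead/moribund.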

[15] = tested on: Anopheles funestus strain FUMOZ-R; assay: Anopheles funestus test (ANPHFU surface treatment & contact assay); details: 24 hours after contact, read-out: efficacy (mortality)
Procedure: Anopheles funestus Test (ANPHFU Surface Treatment & Contact Assay)
as §1
as §2, with “mosquitoes” for “flies”, “Anopheles funestus” for “Musca domestica”, “FUMOZ-R (Hunt et al., Med. Vet. Entomol. 2005 September; 19(3): 271-275)” for “WHO—N”

Compound	mortality at 100 g/ha [1] [%]	pest or weed control at 500 g/ha [2] [%]	mortality at 100 ppm [3] [%]	pest or weed control at 0.02 mg [4] [%]	mortality at 20 mg/m2 [5] [%]	mortality at 500 g/ha [6] [%]	pest or weed control at 5 µg/cm2 [7] [%]	pest or weed control at 100 g/ha [8] [%]	pest or weed control at 500 g/ha [8] [%]	mortality at 100 g/ha [9] [%]	mortality at 500 g/ha [10] [%]	mortality at 4 ppm [11] [%]	pest or weed control at 100 g/ha [2] [%]	pest or weed control at 4 pg [4] [%]	mortality at 100 g/ha [10] [%]	pest or weed control at 20 ppm [12] [%]	mortality at 4 mg/m2 [13] [%]	mortality at 20 mg/m2 [13] [%]	also measured
CCc1nc([C@H](C)NC(=O)c2cc(Cl)cc(S(C)(=O)=O)c2)n(-c2ccc(C#N)cn2)n1 [I-3]	100	100	100	100	80 to 100	100	90	100	100	100	100	100							mortality at 500 g/ha [1]: 100%; mortality at 500 g/ha [9]: 100%
COc1nc([C@H](C)NC(=O)c2cc(Cl)cc(S(C)(=O)=O)c2)n(-c2ccc(C#N)cn2)n1 [I-7]	100	100	100	100		90	100	100	100	100	100	100	100	100	100				mortality at 500 g/ha [1]: 90%; mortality at 500 g/ha [9]: 100%
CCS(=O)(=O)c1cc(Cl)cc(C(=O)N[C@@H](C)c2nc(C(C)C)nn2-c2ccc(C#N)cn2)c1 [I-17]			90	100				80	80					100		90			
C[C@H](NC(=O)c1cc(C2CC2)cc(S(=O)(=O)C2CC2)c1)c1nc(C2CC2)nn1-c1ccc(C#N)cn1 [I-56]								100	100	100						100			
C[C@H](NC(=O)c1cc(C(F)(F)F)cc(S(C)(=O)=O)c1)c1nc(C2CC2)nn1-c1ccc(C#N)cn1 [I-64]	100				80 to 100					100		100	100		100		80 to 100	80 to 100	mortality at 100 g/ha [6]: 100%
C[C@H](NC(=O)c1cc(OC(F)(F)F)cc(S(C)(=O)=O)c1)c1nc(C2CC2)nn1-c1ccc(C#N)cn1 [I-81]	90					100				100	100	100	100		100		80 to 100	80 to 100	mortality at 4 mg/m2 [5]: 80 to 100%
C[C@H](NC(=O)c1cc(OC(F)(F)F)cc(S(C)(=O)=O)c1)c1nc(C2CC2)nn1-c1ncc(Cl)cn1 [I-82]	90				80 to 100	90				100	100	100	100		100		80 to 100	80 to 100	
CC(NC(=O)c1cc(OC(F)(F)F)cc(C2CC2)c1)c1nc(I)nn1-c1ccc(C#N)cn1 (stereo not drawn) [I-83]								100	100	100			100			100			pest or weed control at 5 µg/cm2, 500 g/ha [14]: 80%
CC(NC(=O)c1cc(OC(F)(F)F)cc(C2CC2)c1)c1nc(Br)nn1-c1ccc(C#N)cn1 (stereo not drawn) [I-84]										100			100			100			
C[C@H](NC(=O)c1cc(C#N)cc(S(C)(=O)=O)c1)c1ncnn1-c1ncccn1 [II-28]		100		100	80 to 100	100	100				100	100		100	100				mortality at 4 mg/m2 [5]: 80 to 100%; mortality at 100 g/ha [6]: 100%; mortality at 4 mg/m2 ([15]; surface concentration 4 mg/m^2, exposure 30 minutes): 80 to 100%; mortality at 20 mg/m2 ([15]; surface concentration 20 mg/m^2, exposure 30 minutes): 80 to 100%; pest or weed control at 100 g/ha ([14]; application rate 1 pg/cm^2 (=100 g/ha)): 100%; pest or weed control at 5 µg/cm2, 500 g/ha [14]: 100%
